What was measured:
[1] = system: Tyrosine-protein kinase ABL1 (Homo sapiens), P00519 [Q252H]; conditions: Compound concentration 100.0 nM
[2] = system: Tyrosine-protein kinase ABL1 (Homo sapiens), P00519 [T315I]; conditions: Compound concentration 100.0 nM
[3] = system: Tyrosine-protein kinase ABL1 (Homo sapiens), P00519 [Y253F]; conditions: Compound concentration 100.0 nM
[4] = target: Activin receptor type-2B (Homo sapiens) (UniProt Q13705); conditions: Compound concentration 100.0 nM
[5] = target: ALK tyrosine kinase receptor (Homo sapiens) (UniProt Q9UM73); conditions: Compound concentration 100.0 nM
[6] = target: Mitogen-activated protein kinase kinase kinase 6 (Homo sapiens) (UniProt O95382); conditions: Compound concentration 100.0 nM
[7] = target: Aurora kinase C (Homo sapiens) (UniProt Q9UQB9); conditions: Compound concentration 100.0 nM
[8] = target: Cyclin-dependent kinase 9 (Homo sapiens) (UniProt P50750); conditions: Compound concentration 100.0 nM
[9] = target: Dual specificity protein kinase CLK2 (Homo sapiens) (UniProt P49760); conditions: Compound concentration 100.0 nM
[10] = target: Casein kinase I isoform epsilon (Homo sapiens) (UniProt P49674); conditions: Compound concentration 100.0 nM
[11] = target: Ephrin type-A receptor 8 (Homo sapiens) (UniProt P29322); conditions: Compound concentration 100.0 nM
[12] = target: Mitogen-activated protein kinase 6 (Homo sapiens) (UniProt Q16659); conditions: Compound concentration 100.0 nM
[13] = system: Fibroblast growth factor receptor 3 (Homo sapiens), P22607 [G697C]; conditions: Compound concentration 100.0 nM
[14] = target: Tyrosine-protein kinase ITK/TSK (Homo sapiens) (UniProt Q08881); conditions: Compound concentration 100.0 nM
[15] = target: Mitogen-activated protein kinase 10 (Homo sapiens) (UniProt P53779); conditions: Compound concentration 100.0 nM
[16] = system: Mast/stem cell growth factor receptor Kit (Homo sapiens), P10721 [L576P]; conditions: Compound concentration 100.0 nM
[17] = target: Serine/threonine-protein kinase LATS2 (Homo sapiens) (UniProt Q9NRM7); conditions: Compound concentration 100.0 nM
[18] = target: Serine/threonine-protein kinase MAK (Homo sapiens) (UniProt P20794); conditions: Compound concentration 100.0 nM
[19] = system: Hepatocyte growth factor receptor (Homo sapiens), P08581 [M1250T]; conditions: Compound concentration 100.0 nM
[20] = system: Hepatocyte growth factor receptor (Homo sapiens), P08581 [Y1235D]; conditions: Compound concentration 100.0 nM
[21] = target: Serine/threonine-protein kinase 24 (Homo sapiens) (UniProt Q9Y6E0); conditions: Compound concentration 100.0 nM
[22] = target: Serine/threonine-protein kinase 26 (Homo sapiens) (UniProt Q9P289); conditions: Compound concentration 100.0 nM
[23] = target: Serine/threonine-protein kinase mTOR (Homo sapiens) (UniProt P42345); conditions: Compound concentration 100.0 nM
[24] = target: Platelet-derived growth factor receptor alpha (Homo sapiens) (UniProt P16234); conditions: Compound concentration 100.0 nM
[25] = target: Phosphatidylinositol 4-kinase beta (Homo sapiens) (UniProt Q9UBF8); conditions: Compound concentration 100.0 nM
[26] = target: Serine/threonine-protein kinase N2 (Homo sapiens) (UniProt Q16513); conditions: Compound concentration 100.0 nM
[27] = target: Serine/threonine-protein kinase PLK2 (Homo sapiens) (UniProt Q9NYY3); conditions: Compound concentration 100.0 nM
[28] = target: T1, Protein kinase C epsilon type (Homo sapiens) (UniProt Q02156); conditions: Compound concentration 100.0 nM
T1 sequence (whole entry): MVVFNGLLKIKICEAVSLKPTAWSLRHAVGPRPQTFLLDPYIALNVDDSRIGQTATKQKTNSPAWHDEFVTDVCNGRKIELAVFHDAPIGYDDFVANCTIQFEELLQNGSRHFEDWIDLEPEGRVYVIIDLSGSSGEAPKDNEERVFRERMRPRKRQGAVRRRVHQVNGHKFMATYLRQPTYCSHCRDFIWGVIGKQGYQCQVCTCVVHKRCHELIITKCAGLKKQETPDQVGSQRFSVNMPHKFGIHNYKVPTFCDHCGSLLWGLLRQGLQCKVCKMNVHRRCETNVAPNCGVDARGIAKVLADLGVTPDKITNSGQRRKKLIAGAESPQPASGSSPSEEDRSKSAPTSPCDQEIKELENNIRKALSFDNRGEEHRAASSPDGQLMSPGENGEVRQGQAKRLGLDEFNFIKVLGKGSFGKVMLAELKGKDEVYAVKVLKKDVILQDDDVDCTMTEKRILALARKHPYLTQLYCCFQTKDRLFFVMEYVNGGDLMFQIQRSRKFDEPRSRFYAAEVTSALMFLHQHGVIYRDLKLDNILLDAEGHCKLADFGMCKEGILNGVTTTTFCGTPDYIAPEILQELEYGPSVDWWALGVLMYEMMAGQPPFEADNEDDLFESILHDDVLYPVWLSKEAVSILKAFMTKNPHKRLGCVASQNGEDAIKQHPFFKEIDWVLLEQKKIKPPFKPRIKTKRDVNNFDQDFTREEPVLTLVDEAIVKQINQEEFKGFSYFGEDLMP

[29] = target: Receptor-interacting serine/threonine-protein kinase 1 (Homo sapiens) (UniProt Q13546); conditions: Compound concentration 100.0 nM
[30] = target: SRSF protein kinase 2 (Homo sapiens) (UniProt P78362); conditions: Compound concentration 100.0 nM
[31] = target: Serine/threonine-protein kinase 36 (Homo sapiens) (UniProt Q9NRP7); conditions: Compound concentration 100.0 nM
[32] = target: Mitogen-activated protein kinase kinase kinase 7 (Homo sapiens) (UniProt O43318); conditions: Compound concentration 100.0 nM
[33] = target: Serine/threonine-protein kinase TAO3 (Homo sapiens) (UniProt Q9H2K8); conditions: Compound concentration 100.0 nM
[34] = target: 5-hydroxytryptamine receptor 7 (Homo sapiens) (UniProt P34969); conditions: Compound concentration 10.0 uM
[35] = target: D(1B) dopamine receptor (Homo sapiens) (UniProt P21918); conditions: Compound concentration 10.0 uM
[36] = target: Beta-3 adrenergic receptor (Homo sapiens) (UniProt P13945); conditions: Compound concentration 10.0 uM

Mitogen-activated protein kinase 6 (Homo sapiens), sequence (Q16659 whole entry): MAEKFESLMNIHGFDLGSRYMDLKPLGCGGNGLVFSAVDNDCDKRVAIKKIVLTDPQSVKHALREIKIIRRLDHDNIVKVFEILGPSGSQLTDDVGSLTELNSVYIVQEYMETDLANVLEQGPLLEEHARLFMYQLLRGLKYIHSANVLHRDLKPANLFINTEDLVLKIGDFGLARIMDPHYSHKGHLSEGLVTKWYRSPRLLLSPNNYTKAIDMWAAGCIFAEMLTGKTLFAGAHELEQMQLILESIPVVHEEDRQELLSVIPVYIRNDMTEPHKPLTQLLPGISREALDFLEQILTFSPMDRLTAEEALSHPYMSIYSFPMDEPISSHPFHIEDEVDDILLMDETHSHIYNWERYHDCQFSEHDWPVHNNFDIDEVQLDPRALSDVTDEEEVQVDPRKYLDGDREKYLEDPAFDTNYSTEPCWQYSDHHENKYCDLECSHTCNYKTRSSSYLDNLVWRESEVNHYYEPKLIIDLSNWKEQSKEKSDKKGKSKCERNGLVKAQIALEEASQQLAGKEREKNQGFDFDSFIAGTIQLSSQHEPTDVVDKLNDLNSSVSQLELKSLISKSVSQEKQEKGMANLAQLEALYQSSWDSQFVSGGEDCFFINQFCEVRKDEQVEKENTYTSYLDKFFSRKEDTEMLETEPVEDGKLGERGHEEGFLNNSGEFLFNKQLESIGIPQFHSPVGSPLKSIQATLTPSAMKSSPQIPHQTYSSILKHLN
Ephrin type-A receptor 8 (Homo sapiens), sequence (P29322 whole entry): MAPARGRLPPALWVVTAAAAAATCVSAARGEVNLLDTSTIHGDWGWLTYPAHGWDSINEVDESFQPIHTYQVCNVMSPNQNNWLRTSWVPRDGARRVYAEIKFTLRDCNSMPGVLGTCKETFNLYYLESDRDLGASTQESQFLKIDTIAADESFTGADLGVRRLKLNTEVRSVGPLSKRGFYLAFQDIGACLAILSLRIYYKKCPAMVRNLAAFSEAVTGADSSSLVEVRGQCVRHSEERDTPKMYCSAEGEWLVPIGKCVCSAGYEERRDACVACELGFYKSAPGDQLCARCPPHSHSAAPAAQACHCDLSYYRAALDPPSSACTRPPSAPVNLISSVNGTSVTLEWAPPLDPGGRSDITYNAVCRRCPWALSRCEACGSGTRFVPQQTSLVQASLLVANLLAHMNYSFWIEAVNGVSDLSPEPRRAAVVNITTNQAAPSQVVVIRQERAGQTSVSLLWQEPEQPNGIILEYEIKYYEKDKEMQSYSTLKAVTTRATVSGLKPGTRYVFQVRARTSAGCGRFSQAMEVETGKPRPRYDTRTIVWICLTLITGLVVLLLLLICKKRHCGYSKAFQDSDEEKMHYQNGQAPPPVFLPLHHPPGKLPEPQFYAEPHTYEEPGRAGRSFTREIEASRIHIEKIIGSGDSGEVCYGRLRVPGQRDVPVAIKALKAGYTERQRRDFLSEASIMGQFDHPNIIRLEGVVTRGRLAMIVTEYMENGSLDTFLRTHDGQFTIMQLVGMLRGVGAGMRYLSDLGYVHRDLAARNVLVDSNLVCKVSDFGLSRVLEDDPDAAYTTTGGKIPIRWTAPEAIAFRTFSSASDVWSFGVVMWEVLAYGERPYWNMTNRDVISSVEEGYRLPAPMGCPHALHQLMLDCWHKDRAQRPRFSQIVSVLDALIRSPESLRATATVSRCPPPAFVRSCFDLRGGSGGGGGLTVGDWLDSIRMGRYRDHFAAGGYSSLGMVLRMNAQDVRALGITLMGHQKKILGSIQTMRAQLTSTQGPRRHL
Tyrosine-protein kinase ITK/TSK (Homo sapiens), sequence (Q08881 whole entry): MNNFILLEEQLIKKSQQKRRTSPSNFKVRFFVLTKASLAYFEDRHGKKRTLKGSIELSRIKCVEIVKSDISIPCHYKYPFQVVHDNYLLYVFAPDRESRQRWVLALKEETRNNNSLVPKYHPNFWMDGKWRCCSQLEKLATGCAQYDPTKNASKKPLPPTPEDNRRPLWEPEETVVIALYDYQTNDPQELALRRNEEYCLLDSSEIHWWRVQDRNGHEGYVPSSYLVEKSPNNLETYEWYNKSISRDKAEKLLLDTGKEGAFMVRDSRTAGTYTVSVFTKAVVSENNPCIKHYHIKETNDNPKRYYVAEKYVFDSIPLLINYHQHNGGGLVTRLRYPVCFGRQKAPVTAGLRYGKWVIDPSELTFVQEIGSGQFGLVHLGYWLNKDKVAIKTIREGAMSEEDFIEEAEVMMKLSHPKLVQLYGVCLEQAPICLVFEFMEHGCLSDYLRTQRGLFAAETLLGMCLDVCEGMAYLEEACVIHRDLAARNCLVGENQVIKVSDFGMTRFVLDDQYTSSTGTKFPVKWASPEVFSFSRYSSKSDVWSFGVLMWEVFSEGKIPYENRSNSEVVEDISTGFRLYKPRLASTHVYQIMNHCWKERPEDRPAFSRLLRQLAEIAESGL
Mitogen-activated protein kinase kinase kinase 6 (Homo sapiens), sequence (O95382 whole entry): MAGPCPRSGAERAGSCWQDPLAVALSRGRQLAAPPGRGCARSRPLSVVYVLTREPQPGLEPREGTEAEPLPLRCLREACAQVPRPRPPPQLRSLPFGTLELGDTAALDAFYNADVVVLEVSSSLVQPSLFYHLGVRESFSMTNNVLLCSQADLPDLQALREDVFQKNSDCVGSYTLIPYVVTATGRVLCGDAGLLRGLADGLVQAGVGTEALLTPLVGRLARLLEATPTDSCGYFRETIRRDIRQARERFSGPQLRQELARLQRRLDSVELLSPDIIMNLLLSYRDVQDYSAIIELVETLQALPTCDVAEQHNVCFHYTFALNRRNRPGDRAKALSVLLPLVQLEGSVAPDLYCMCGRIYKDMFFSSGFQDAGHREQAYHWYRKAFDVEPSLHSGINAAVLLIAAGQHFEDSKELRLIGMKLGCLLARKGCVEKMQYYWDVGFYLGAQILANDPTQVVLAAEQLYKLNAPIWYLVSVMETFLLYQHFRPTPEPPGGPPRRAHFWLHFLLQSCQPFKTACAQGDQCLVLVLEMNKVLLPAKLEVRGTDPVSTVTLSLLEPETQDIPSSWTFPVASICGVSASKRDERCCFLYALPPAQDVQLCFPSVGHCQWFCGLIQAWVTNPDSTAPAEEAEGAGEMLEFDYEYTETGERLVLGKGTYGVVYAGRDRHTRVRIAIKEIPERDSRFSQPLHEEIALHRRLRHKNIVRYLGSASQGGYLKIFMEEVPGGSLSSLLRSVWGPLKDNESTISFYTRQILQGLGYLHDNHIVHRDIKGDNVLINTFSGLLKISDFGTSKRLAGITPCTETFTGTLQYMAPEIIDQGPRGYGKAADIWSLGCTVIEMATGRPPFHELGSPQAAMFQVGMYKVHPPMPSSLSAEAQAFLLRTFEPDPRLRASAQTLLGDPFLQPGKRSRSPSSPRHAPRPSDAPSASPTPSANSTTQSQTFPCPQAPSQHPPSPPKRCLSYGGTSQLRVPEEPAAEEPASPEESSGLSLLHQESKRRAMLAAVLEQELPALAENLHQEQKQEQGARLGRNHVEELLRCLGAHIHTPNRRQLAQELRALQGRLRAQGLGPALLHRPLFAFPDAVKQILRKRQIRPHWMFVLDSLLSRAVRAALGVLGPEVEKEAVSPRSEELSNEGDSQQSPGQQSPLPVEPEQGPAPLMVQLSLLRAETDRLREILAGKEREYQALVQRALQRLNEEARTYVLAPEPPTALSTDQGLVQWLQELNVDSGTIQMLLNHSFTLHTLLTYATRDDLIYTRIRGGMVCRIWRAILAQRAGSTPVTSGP
Platelet-derived growth factor receptor alpha (Homo sapiens), sequence (P16234 whole entry): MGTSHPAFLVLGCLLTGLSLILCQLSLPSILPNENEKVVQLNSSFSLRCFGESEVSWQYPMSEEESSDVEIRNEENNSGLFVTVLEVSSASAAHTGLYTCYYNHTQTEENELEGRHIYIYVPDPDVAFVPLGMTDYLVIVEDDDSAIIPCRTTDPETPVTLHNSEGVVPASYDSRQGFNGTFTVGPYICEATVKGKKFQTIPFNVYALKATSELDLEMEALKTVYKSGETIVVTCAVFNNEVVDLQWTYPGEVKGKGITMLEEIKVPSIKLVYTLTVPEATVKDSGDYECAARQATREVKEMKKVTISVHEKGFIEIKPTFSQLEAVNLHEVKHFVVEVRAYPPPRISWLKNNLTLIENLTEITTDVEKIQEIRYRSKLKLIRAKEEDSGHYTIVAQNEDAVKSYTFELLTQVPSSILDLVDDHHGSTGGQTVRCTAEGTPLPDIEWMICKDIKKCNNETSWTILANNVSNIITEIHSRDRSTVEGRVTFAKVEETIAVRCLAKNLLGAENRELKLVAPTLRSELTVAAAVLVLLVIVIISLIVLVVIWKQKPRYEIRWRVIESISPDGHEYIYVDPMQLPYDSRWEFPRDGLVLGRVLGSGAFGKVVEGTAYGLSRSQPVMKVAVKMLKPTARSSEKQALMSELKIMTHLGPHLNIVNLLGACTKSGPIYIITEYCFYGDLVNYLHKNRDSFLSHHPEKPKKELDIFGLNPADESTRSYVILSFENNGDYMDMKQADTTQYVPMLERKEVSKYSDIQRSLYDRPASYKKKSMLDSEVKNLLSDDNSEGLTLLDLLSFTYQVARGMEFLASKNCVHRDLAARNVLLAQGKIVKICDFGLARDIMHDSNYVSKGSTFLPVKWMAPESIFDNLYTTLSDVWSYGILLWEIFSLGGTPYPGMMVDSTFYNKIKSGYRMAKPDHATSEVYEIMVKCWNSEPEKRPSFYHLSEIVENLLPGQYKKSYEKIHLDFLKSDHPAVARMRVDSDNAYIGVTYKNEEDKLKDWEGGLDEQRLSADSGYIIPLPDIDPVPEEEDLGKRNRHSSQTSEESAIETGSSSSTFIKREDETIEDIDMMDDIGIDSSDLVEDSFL
Aurora kinase C (Homo sapiens), sequence (Q9UQB9 whole entry): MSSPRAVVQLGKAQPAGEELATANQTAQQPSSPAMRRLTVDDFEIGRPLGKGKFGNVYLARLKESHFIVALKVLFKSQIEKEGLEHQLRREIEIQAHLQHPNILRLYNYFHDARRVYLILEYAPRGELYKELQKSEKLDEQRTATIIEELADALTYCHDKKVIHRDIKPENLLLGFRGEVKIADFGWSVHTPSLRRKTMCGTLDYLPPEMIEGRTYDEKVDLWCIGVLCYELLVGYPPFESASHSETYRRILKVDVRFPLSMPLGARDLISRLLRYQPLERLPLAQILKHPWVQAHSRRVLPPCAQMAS

Row | SMILES | residual activity [1] [%] | residual activity [2] [%] | residual activity [3] [%] | residual activity [4] [%] | residual activity [5] [%] | residual activity [6] [%] | residual activity [7] [%] | residual activity [8] [%] | residual activity [9] [%] | residual activity [10] [%] | residual activity [11] [%] | residual activity [12] [%] | residual activity [13] [%] | residual activity [14] [%] | residual activity [15] [%] | residual activity [16] [%] | residual activity [17] [%] | residual activity [18] [%] | residual activity [19] [%] | residual activity [20] [%] | other results
1 | Cn1cc(Cl)c2c(Oc3c(F)cc(Nc4cc(Cl)nc(N)n4)cc3F)ccnc21 [BAY-4900] | 94 | 86 | 95 | 79 | 89 | 100 | 97 | 100 | 87 | 98 | 100 | 100 | 100 | 97 | 80 | 100 | 91 | 97 | 100 | 91 | residual activity [21]: 100%; residual activity [22]: 92%; residual activity [23]: 85%; residual activity [24]: 98%; residual activity [25]: 100%; residual activity [26]: 75%; residual activity [27]: 83%; residual activity [28]: 91%; residual activity [29]: 100%; residual activity [30]: 78%; residual activity [31]: 93%; residual activity [32]: 100%; residual activity [33]: 100%; inhibition [34]: -1.63%; inhibition [35]: 9.8%; inhibition [36]: 3.48%
2 | Cc1c[nH]c2nccc(Oc3c(F)cc(Nc4cc(Cl)nc(N)n4)cc3F)c12 [BAY-549] | 91 | 84 | 81 | 100 | 95 | 100 | 72 | 78 | 86 | 64 | 87 | 95 | 100 | 81 | 81 | 72 | 0.7 | 84 | 99 | 88 | residual activity [21]: 100%; residual activity [22]: 100%; residual activity [23]: 85%; residual activity [24]: 84%; residual activity [25]: 97%; residual activity [26]: 100%; residual activity [27]: 59%; residual activity [28]: 96%; residual activity [29]: 100%; residual activity [30]: 75%; residual activity [31]: 85%; residual activity [32]: 92%; residual activity [33]: 100%; inhibition [34]: 9.29%; inhibition [35]: 21.9%; inhibition [36]: 22%

Source: ChEMBL document CHEMBL4507274 (2021)
